We go through 14 compounds from patent publication US11472766B2, “Lipid nanoparticle composition” (Suzhou Abogen Biosciences Co., Ltd., priority 2020, dated 2022).

Series [1] is described as follows: Encapsulation efficiency of lipid nanoparticles (Quant-it Ribogreen RNA quantification assay). Format: physicochemical. Conditions: LNP encapsulating hEPO mRNA. The gist of the method:
(§1)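 Lipids 50:10:38.5:1.5 (cationic:DSPC:chol:PEG) in EtOH + mRNA in citrate pH 4, 1:3 vol, microfluidic, 9–30 mL/min; total lipid:mRNA ~10:1–30:1 w/w. Dialysis to DPBS, 0.2 μm filter. DLS 173° backscatter; Ribogreen encapsulation.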

Series [2] is described as follows: Lipid nanoparticle size by dynamic light scattering (Malvern Zetasizer Nano ZS). Format: physicochemical. Conditions: LNP: cationic lipid/DSPC/cholesterol/PEG-lipid 50:10:38.5:1.5, hEPO mRNA. The method in brief:
as §1

The subject of series [3] is human erythropoietin (hEPO) mRNA. The experiment in a line: Animal study: hEPO expression after tail vein injection of LNPs encapsulating hEPO mRNA (serum ELISA). Conditions: hEPO level, female ICR mice, 0.5 mg/kg, 6 hours post administration; for Expression at 6 h (μg/ml): class symbols, Table 3; for Expression at 6 h: Table 2. Format: in vivo. The method in brief: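 Female ICR mice (6-8 weeks) received LNPs carrying hEPO mRNA by tail vein injection at 0.5 mg/kg, with MC3 LNPs dosed the same way as positive control. Blood was drawn at set times (e.g., 6 h) and serum separated. hEPO was quantified by ELISA and reported as μg/ml.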
Background: In an ELISA, binding on a coated surface is turned into a signal by an enzyme label.

Series [4] in a line: Apparent pKa of LNP formulations (TNS fluorescence assay). Conditions: LNP cationic lipid/DSPC/cholesterol/DMG-PEG 50/10/38.5/1.5 mol %.
Protocol: The apparent pKa of each formulation was determined using an assay based on fluorescence of 2-(p-toluidino)-6-napthalene sulfonic acid (TNS). LNP formulations comprising of cationic lipid/DSPC/cholesterol/DMG-PEG (50/10/38.5/1.5 mol %) in PBS were prepared as described above. TNS was prepared as a 300 uM stock solution in distilled water. LNP formulations were diluted to 0.1 mg/ml total lipid in 3 mL of buffered solutions containing 50 mM sodium citrate, 50 mM sodium phosphate, 50 mM sodium borate, and 30 mM sodium chloride where the pH ranged from 3 to 9. An aliquot of the TNS solution was added to give a final concentration of 0.1 mg/ml and following vortex mixing fluorescence intensity was measured at room temperature in a Molecular Devices Spectramax iD3 spectrometer using excitation and mission wavelengths of 325 nm and 435 nm. A sigmoidal best fit analysis was applied to the fluorescence data and the pKa value was measured as the pH giving rise to half-maximal fluorescent intensity.

Take `CCCCC/C=C\CCCOC(=O)CCCCCN(CCCCCC(=O)OCCC/C=C\CCCCC)CCN(CCO)C1CCC1` [Compound 62]: the “Encapsulation Efficiency” value in series [1] (Table 3) is recorded as 36.2%. In series [2] (Table 3), this compound yielded a polydispersity of 0.156 and a size nm of 244.8 nm. In series [3], the “Expression at 6 h (μg/ml)” value is “D (<0.1)”. Further, in series [4] (Table 3), the “Apparant Pka” value is 6.438.

Consider `CCCCCC/C=C\COC(=O)CCCCCN(CCCC(=O)OC(CCCCCCC)CCCCCCC)CCN(CCO)C1CCC1` [Compound 46], for which, in series [1] (Table 3), the “Encapsulation Efficiency” value is 93.8%. In series [2] (Table 3), the polydispersity amounted to 0.073 and the size nm was 110.4 nm. Besides, the “Expression at 6 h (μg/ml)” value in series [3] was “C (≥0.1 and <1)”. Also, the “Apparant Pka” value in series [4] (Table 3) is listed as 6.307.

On to `CCCCCCCCC(CCCCCC)COC(=O)CCCCCN(CCCCCC(=O)OCC(CCCCCC)CCCCCCCC)CCN(CCO)C1CCCCC1` (stereo not drawn) [Compound 2], for which the “Encapsulation Efficiency” value in series [1] (Table 2) worked out at 96.8%. Further, in series [2] (Table 2), the polydispersity came to 0.065 and the “size nm” value stood at 75.3 nm. Further, the “Expression at 6 h” value in series [3] was 6.16 µg/mL. For the same compound, the “Apparant Pka” value in series [4] (Table 2) is listed as 6.27.

On to `CCCCCCCCC(CCCCCC)C(C)OC(=O)CCCCCN(CCCCCC(=O)OC(C)C(CCCCCC)CCCCCCCC)CCN(CCO)C1CCC1` (stereo not drawn) [Compound 38], for which the “Encapsulation Efficiency” value in series [1] (Table 3) came out at 98.7%. In series [2] (Table 3), this compound registered a polydispersity of 0.167 and a size nm of 65.94 nm. Further, in series [3], the “Expression at 6 h (μg/ml)” value was “C (≥0.1 and <1)”. Further, in series [4] (Table 3), the “Apparant Pka” value is listed as 6.172.

As to `CCCCCCCCCCCOC(=O)CCCCCN(CCCCCC(=O)OCC(CCCCCCCC)CCCCCCCC)CCN(CCO)C1CCC1` [Compound 81], the “Encapsulation Efficiency” value in series [1] (Table 3) came out at 94.6%. In series [2] (Table 3), this compound displayed a polydispersity of 0.028 and a size nm of 75.89 nm. For the same compound, the “Expression at 6 h (μg/ml)” value in series [3] is given as “A (≥2)”. For the same compound, the “Apparant Pka” value in series [4] (Table 3) is on record as 6.476.

In the case of `CCCCCCCCC(CCCCCCCC)COC(=O)CCCCCN(CCCCCC(=O)OCC(CCCCCCCC)CCCCCCCC)CCN(CCO)C1CC(F)(F)C1` [Compound 79], the “Encapsulation Efficiency” value in series [1] (Table 3) was 89.2%. In series [2] (Table 3), this compound came in with a polydispersity of 0.154 and a size nm of 52.19 nm. For the same compound, the “Expression at 6 h (μg/ml)” value in series [3] is “C (≥0.1 and <1)”. Besides, in series [4] (Table 3), the “Apparant Pka” value is recorded as 5.735.

With `CCCCCCCCC(CCCCCC)COC(=O)NCCCCN(CCCCNC(=O)OCC(CCCCCC)CCCCCCCC)CCN(CCO)C1CCCC1` (stereo not drawn) [Compound 125], in series [1] (Table 3), the “Encapsulation Efficiency” value came to 95.6%. Further, in series [2] (Table 3), the polydispersity came out at 0.116 and the size nm worked out at 72.36 nm. Also, in series [3], the “Expression at 6 h (μg/ml)” value was “A (≥2)”. The “Apparant Pka” value in series [4] (Table 3) is on record as 6.833.

As to `CCCCCCCCC(CCCCCC)COC(=O)CCCCCN(CCCCCC(=O)OCC(CCCCCC)CCCCCCCC)CCN(CCO)C1CC1` (stereo not drawn) [Compound 4], the “Encapsulation Efficiency” value in series [1] (Table 2) was determined as 98.1%. In series [2] (Table 2), the polydispersity is listed as 0.068 and the “size nm” value came out at 57.5 nm. For the same compound, the “Expression at 6 h” value in series [3] came to 0.48 µg/mL. Moreover, the “Apparant Pka” value in series [4] (Table 2) worked out at 5.87.

For the compound `CCCCCCCCC(CCCCCC)COC(=O)CCCCCN(CCCCCC(=O)OCC(CCCCCC)CCCCCCCC)CCN(C1CCC1)C1CCC(O)CC1` (stereo not drawn) [Compound 93], the “Encapsulation Efficiency” value in series [1] (Table 3) came to 98.3%. In series [2] (Table 3), this compound came in with a polydispersity of 0.041 and a size nm of 93.74 nm. For the same compound, in series [3], the “Expression at 6 h (μg/ml)” value was “A (≥2)”. Further, in series [4] (Table 3), the “Apparant Pka” value is listed as 6.491.

As for `CCCCCCCCCCCOC(=O)CCCCCN(CCCCCC(=O)OCC(CCCCCCCC)CCCCCCCC)CCN(CCO)C1CC1` [Compound 80], the “Encapsulation Efficiency” value in series [1] (Table 3) is given as 85.2%. In series [2] (Table 3), this compound displayed a polydispersity of 0.06 and a size nm of 76.71 nm. In addition, the “Expression at 6 h (μg/ml)” value in series [3] is “B (≥1 and <2)”. In series [4] (Table 3), the “Apparant Pka” value is given as 6.201.

For `CCCCCCC(CCCCCC)CC(=O)NCCCCCN(CCCCCOC(=O)CC(CCCCCC)CCCCCC)CCN(CCO)C1CCCCC1` [Compound 152], the “Encapsulation Efficiency” value in series [1] (Table 3) was 88.2%. In series [2] (Table 3), this compound had a polydispersity of 0.026 and a size nm of 92.17 nm. For the same compound, the “Expression at 6 h (μg/ml)” value in series [3] is recorded as “A (≥2)”. Further, the “Apparant Pka” value in series [4] (Table 3) was 6.686.

For the compound `CCCCC/C=C\CCCC(=O)C(CC/C=C\CCCCC)C(CCC/C=C\CCCCC)OC(=O)CCCCCN(CCO)CCCCCC(=O)OCCC/C=C/CCCCC` (stereo not drawn) [Compound 100], in series [1] (Table 3), the “Encapsulation Efficiency” value is listed as 87.7%. Moreover, in series [2] (Table 3), the polydispersity is reported as 0.208 and the size nm came out at 58.6 nm. Also, the “Expression at 6 h (μg/ml)” value in series [3] is “C (≥0.1 and <1)”. In addition, the “Apparant Pka” value in series [4] (Table 3) is recorded as 6.187.

As to `CCCCCCCCC(CCCCCC)CNC(=O)CCCCCN(CCCCCC(=O)NCC(CCCCCC)CCCCCCCC)CCN(CCO)C1CCC1` (stereo not drawn) [Compound 118], in series [1] (Table 3), the “Encapsulation Efficiency” value was found to be 98.9%. In series [2] (Table 3), this compound displayed a polydispersity of 0.057 and a size nm of 62.72 nm. The “Expression at 6 h (μg/ml)” value in series [3] is given as “A (≥2)”. The “Apparant Pka” value in series [4] (Table 3) is on record as 6.523.

On to `CCCCCCC(CCCCCC)CCCCCC(=O)OCCCCCN(CCCCCOC(=O)CCCCCC(CCCCCC)CCCCCC)CCN(CCO)C1CCC1` [Compound 86], for which the “Encapsulation Efficiency” value in series [1] (Table 3) turned out to be 93.8%. Further, in series [2] (Table 3), the size nm stood at 76.56 nm. The “Expression at 6 h (μg/ml)” value in series [3] was “C (≥0.1 and <1)”. Also, the “Apparant Pka” value in series [4] (Table 3) is 6.32.
